Test results published in US7115640B2, “Heterocyclic modulators of nuclear receptors” (X-Ceptor Therapeutics, Inc., priority 2001, dated 2006).
Read-outs that look alike come from different tables or passages of the source.

Experiments:
GST-FXR-LBD = target: T1, GST-FXR-LBD (Homo sapiens, UniProt Q96RI1); assay: Time resolved fluorescence resonance energy transfer (TR-FRET) coactivator recruitment assay; type: biochemical
T1 sequence (Q96RI1 244-472 isoform Q96RI1-2): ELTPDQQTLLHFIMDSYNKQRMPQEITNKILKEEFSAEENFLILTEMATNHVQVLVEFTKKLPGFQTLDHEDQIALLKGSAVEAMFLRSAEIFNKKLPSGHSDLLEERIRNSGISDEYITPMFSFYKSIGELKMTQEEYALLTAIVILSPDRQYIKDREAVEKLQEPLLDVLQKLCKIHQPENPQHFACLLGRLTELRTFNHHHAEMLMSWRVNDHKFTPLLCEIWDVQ
Method: The FRET assay was performed by incubating 8 nM of GST-FXR-LBD, 8 nM of Europium-labeled anti-GST antibody (Wallac), 16 nM biotin-SRC-1 peptide [5′-biotin-[…]-CONH2], 20 nM APC-SA [allophycocyanin conjugated streptavidin] (Wallac) in FRET assay buffer (20 mM KH2PO4/K2HPO4 (pH 7.3), 150 mM NaCl, 2 mM CHAPS, 2 mM EDTA, 1 mM DTT) in the presence of the test compound(s) for 2–4 hours at room temperature. Data was collected using an LJL Analyst with readings at 615 nm and 665 nm.
Both the FXR/ECREx7 co-transfection assay (Example 54) and the TR-FRET assay (Example 53) can be used to establish the EC50/IC50 values for potency and percent activity or inhibition for efficacy. Efficacy defines the activity of a compound relative to a high control (chenodeoxycholic acid, CDCA) or a low control (DMSO/vehicle). The dose response curves are generated from an 8 point curve with concentrations differing by ½ LOG units. Each point represents the average of 4 wells of data from a 384 well plate. […]
The EC50/IC50 is therefore defined as the concentration at which an agonist or antagonist elicits a response that is half way between the Top (maximum) and Bottom (baseline) values. […] The determination of the relative efficacy or % control for an agonist is by comparison to the maximum response achieved by chenodeoxycholic acid that is measured individually in each dose response experiment. […]

[1] = target: T2, FXR (CMX-hFXR with CMX-RXRα in CV-1 cells) (Homo sapiens, UniProt Q96RI1); assay: FXR/ECREx7 co-transfection assay (luciferase reporter); type: cell-based; settings: for EC50: FXR agonism
T2 construct: expressed in transfected cells; host or cells: CV-1 African Green Monkey Kidney cells
T2 sequence (Q96RI1 1-472 isoform Q96RI1-2): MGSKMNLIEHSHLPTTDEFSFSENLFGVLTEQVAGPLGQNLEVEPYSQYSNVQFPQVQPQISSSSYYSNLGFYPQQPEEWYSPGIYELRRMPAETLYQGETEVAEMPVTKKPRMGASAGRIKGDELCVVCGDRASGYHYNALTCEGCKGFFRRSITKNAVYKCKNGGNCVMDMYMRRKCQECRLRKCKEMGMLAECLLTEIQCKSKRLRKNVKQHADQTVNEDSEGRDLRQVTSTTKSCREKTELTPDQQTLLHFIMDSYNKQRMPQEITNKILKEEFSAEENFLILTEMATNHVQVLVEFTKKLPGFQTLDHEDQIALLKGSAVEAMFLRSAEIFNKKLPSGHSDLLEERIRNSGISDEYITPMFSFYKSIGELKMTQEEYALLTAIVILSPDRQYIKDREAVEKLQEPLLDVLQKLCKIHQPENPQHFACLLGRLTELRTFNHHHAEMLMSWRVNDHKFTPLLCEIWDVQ
T2 sequence (P19793 1-462 partner): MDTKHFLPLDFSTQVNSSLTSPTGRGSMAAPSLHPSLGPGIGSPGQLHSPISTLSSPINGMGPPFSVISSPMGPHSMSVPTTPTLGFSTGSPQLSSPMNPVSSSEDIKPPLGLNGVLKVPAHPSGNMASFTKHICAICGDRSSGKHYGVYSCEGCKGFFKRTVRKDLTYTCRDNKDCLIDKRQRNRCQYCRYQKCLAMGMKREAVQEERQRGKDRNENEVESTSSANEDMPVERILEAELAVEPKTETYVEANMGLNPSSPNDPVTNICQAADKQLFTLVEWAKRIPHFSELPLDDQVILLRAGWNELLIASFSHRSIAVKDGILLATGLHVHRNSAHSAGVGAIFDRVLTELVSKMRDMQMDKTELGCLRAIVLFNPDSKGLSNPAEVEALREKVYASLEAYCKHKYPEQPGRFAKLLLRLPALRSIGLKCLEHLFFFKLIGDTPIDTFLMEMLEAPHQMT
Method: The basic co-transfection protocol for measuring FXR activity is as follows. CV-1 African Green Monkey Kidney cells are plated 24 hours before transfection to achieve approximately 70–80 percent confluency. Cells are transfected with CMX-hFXR, CMX-RXRα, Luc12 reporter (ECREx7-Tk-Luciferase), and a CMX-β-Galactosidase expression vector. The transfection reagent used is DOTAP. Cells are incubated with the DOTAP/DNA mixture for 5 hours after which the cells are harvested and plated onto either 96 well or 384 well plates containing the appropriate concentration of test compound. The assay is allowed to continue for an additional 18–20 hours, after which the cells are lysed, and the luciferase activity is measured on a standard plate reader.
Both the FXR/ECREx7 co-transfection assay (Example 54) and the TR-FRET assay (Example 53) can be used to establish the EC50/IC50 values for potency and percent activity or inhibition for efficacy. Efficacy defines the activity of a compound relative to a high control (chenodeoxycholic acid, CDCA) or a low control (DMSO/vehicle). The dose response curves are generated from an 8 point curve with concentrations differing by ½ LOG units. Each point represents the average of 4 wells of data from a 384 well plate. The curve for the data is generated by using the equation: Y=Bottom+(Top−Bottom)/(1+10^((LogEC50−X)*HillSlope))
The EC50/IC50 is therefore defined as the concentration at which an agonist or antagonist elicits a response that is half way between the Top (maximum) and Bottom (baseline) values. The EC50/IC50 values represented are the averages of at least 3 independent experiments. The determination of the relative efficacy or % control for an agonist is by comparison to the maximum response achieved by chenodeoxycholic acid that is measured individually in each dose response experiment.
For the antagonist assay, 40 μM CDCA is added to each well of a 384 well plate to elicit a response. The % inhibition for each antagonist is therefore a measurement of the inhibition of the activity of 40 μM CDCA. In this example 100% inhibition would indicate that the activity of 40 μM CDCA has been reduced to baseline levels, defined as the activity of the assay in the presence of DMSO only.

Row | Emax ([1]; CV-1, relative to maximum response of chenodeoxycholic acid (CDCA), co-transfection assay, read-out: % efficacy) | Structure (SMILES) | IC50 (GST-FXR-LBD; FXR antagonism) | % inhibition (GST-FXR-LBD; inhibition of the activity of 40 μM CDCA) | Emax ([1]; CV-1, read-out: % efficacy) | EC50 ([1]; co-transfection assay)
1 |  | CCNc1ccc(C#N)cc1N=C1SC(=C2SC(C)=C(c3ccccc3)N2C)C(=O)N1Cc1ccccc1 [Example 52, 3-(3′-benzyl-3,5-dimethyl-4′-oxo-4-phenyl-3′,4′-dihydro-3H-[2,5′]-bithiazolyliden-2′-ylideneamino)-4-(ethylamino)benzonitrile] | ~42 nM | about 48% | ~32% | ~56 nM
2 | ~150% | CCNc1ccc(C#N)cc1N=C1SC(=C2Sc3ccccc3N2C)C(=O)N1Cc1ccccc1 [Example 32, 3-[3-benzyl-5-(3-methyl-3H-benzothiazol-2-ylidene)-4-oxothiazolidin-2-ylideneamino]-4-(ethylamino)benzonitrile] |  |  |  | ~10 nM
